The target of the first assay is T1, AhR (Homo sapiens, UniProt P35869).
T1 construct: host or cells: HepG2
T1 sequence (P35869 11-848): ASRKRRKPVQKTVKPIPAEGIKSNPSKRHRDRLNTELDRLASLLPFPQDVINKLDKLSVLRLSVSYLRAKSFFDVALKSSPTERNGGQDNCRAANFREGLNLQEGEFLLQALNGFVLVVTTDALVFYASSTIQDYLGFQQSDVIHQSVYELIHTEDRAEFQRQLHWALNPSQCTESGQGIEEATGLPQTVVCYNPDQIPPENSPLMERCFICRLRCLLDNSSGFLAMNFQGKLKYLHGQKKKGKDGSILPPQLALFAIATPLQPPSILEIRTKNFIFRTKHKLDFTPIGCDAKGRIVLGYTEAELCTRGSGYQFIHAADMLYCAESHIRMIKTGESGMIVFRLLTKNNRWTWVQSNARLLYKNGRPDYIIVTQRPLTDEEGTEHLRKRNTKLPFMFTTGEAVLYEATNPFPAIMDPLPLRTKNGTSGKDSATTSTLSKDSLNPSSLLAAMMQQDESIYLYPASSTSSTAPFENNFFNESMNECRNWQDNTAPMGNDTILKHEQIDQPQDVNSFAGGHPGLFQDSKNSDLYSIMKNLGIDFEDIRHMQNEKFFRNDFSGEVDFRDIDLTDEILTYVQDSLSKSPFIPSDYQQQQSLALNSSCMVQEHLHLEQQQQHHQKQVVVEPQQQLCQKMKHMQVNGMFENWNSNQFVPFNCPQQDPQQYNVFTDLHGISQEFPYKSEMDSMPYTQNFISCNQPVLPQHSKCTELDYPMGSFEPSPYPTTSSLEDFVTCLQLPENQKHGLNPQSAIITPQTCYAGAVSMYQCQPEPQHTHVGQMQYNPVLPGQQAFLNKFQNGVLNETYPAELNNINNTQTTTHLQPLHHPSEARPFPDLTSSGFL
In words: In vitro assay 1: XRE-luciferase reporter assay, antagonism in human cell line (HepG2). The format is cell-based. The conditions noted are these: HepG2 XRE-luciferase, cells treated with kynurenine 50 μM (*), 6 hours; read-out: Assay 1: AhR-Luc Human Antagonism (IC50). An excerpt:
In Vitro XRE-Luciferase Reporter Assay (In Vitro Assay 1, 2, 3)
AhR activation leads the induction of target gene expression such as CYP1A1 and CYP1B1 by AhR binding to AhR-responsive DNA elements also known as xenobiotics responsive elements (XRE). The assay for measuring AhR activity herein is the luciferase assay using cell lines transfected with luciferase reporter plasmid containing XREs at the upstream of the reporter gene. Cells transfected with XRE-luciferase reporter (XRE-Luc) plasmid drive luciferase activity reflecting activation and inhibition of AhR in the cells. In addition to transfection with XRE-reporter vector, cells were co-transfected with Nano-luciferase reporter gene construct (Nano-Luc) containing constitutively active promoter as internal control. Kynurenine (an endogenous AhR agonist) was used to stimulate cells to test antagonistic properties of the compounds. The half-maximal inhibitory concentration (IC50) or half-maximal effective concentration (EC50) value was calculated using nonlinear regression (four parameters) with Prism8.0 software (GraphPad).
In Vitro Assay 1: Antagonism in Human Cell Line
HepG2 (human hepatoma cell line) cell line with a XRE-luciferase reporter either transiently or stably (Invivogen) were plated in complete medium and incubated at 37° C. in a CO2 incubator. After 24 hours, cells were treated with kynurenine (50* or 200 μM) alone (negative control) or with test compounds for 6 hours. Luciferase activity was measured with a commercial kit such as the Promega Luciferase kit or other reagents for measuring luciferase activity. Relative luciferase activity (Firefly/Nano-Luc) was used to calculate IC50 values. The relative luciferase activity was further normalized with kynurenine alone group as the maximum control and the vehicle group as the minimum control. (IC50 values are grouped as A, B, C and D, whereby A: IC50<0.01 μM; B: 0.01<IC50<0.1 μM; C: 0.1<IC50<1.0 μM; D: IC50>1.0 μM)
Consider `Cn1cc(-c2cc3c(=O)n(C4CCCC(O)C4)cnc3c(-c3cnn(C)c3)n2)cn1` (stereo not shown) [Example 2, 3-(3-hydroxycyclohexyl)-6,8-bis(1-methyl-1H-pyrazol-4-yl)pyrido[3,4-d]pyrimidin-4(3H)-one], for which the half-inhibitory concentration (IC50) fell in the range of 0.1 to 1 µM. Same read-out and setting: the result for `CC(CO)n1cnc2c(-c3ccc(C(F)(F)F)cc3)nc(-c3cnn(C)c3)cc2c1=O` (stereo not shown) [Example 4, 3-(1-hydroxypropan-2-yl)-6-(1-methyl-1H-pyrazol-4-yl)-8-(4-(trifluoromethyl)phenyl)pyrido[3,4-d]pyrimidin-4(3H)-one] reads > 1 µM; that for `CC(CO)n1cnc2c(-c3ccc(Cl)cc3)nc(-c3cccnc3)cc2c1=O` (stereo not shown) [Example 5, 8-(4-chlorophenyl)-3-(1-hydroxypropan-2-yl)-6-(pyridin-3-yl)pyrido[3,4-d]pyrimidin-4(3H)-one], > 1 µM; that for `CC(CO)n1cnc2c(-c3ccc(C(F)(F)F)cc3)nc(-c3ccc(C(F)(F)F)cc3)cc2c1=O` (stereo not shown) [Example 6, 3-(1-hydroxypropan-2-yl)-6,8-bis(4-(trifluoromethyl)phenyl)pyrido[3,4-d]pyrimidin-4(3H)-one], 0.1 to 1 µM. Still for that read-out and setting: the result for `CC(=O)OCC(C)n1cnc2c(-c3ccc(Cl)cc3)nc(Cl)cc2c1=O` (stereo not shown) [Example 7, 2-(6-chloro-8-(4-chlorophenyl)-4-oxopyrido[3,4-d]pyrimidin-3(4H)-yl)propyl acetate] reads > 1 µM; that for `Cn1cc(-c2cc3c(=O)n([C@H]4CC[C@H](O)CC4)cnc3c(-c3cnn(C)c3)n2)cn1` [Example 9, 3-((1r,4r)-4-hydroxycyclohexyl)-6,8-bis(1-methyl-1H-pyrazol-4-yl)pyrido[3,4-d]pyrimidin-4(3H)-one], 0.1 to 1 µM. Still for that read-out and setting: the result for `CC(O)Cn1cnc2c(-c3cnn(C)c3)nc(-c3cnn(C)c3)cc2c1=O` (stereo not shown) [Example 11, 3-(2-hydroxypropyl)-6,8-bis(1-methyl-1H-pyrazol-4-yl)pyrido[3,4-d]pyrimidin-4(3H)-one] reads 0.1 to 1 µM; that for `CC(O)Cn1cnc2c(-c3cnn(C)c3)nc(-c3ccc(C(F)(F)F)cc3)cc2c1=O` (stereo not shown) [Example 12, 3-(2-hydroxypropyl)-8-(1-methyl-1H-pyrazol-4-yl)-6-(4-(trifluoromethyl)phenyl)pyrido[3,4-d]pyrimidin-4(3H)-one], < 0.01 µM; that for `CC(O)Cn1cnc2c(-c3cnn(C)c3)nc(-c3ccc(Cl)cc3)cc2c1=O` (stereo not shown) [Example 13, 6-(4-chlorophenyl)-3-(2-hydroxypropyl)-8-(1-methyl-1H-pyrazol-4-yl)pyrido[3,4-d]pyrimidin-4(3H)-one], < 0.01 µM.

Staying with this assay, now noted: HepG2 XRE-luciferase, cells treated with kynurenine 200 μM (no *), 6 hours; read-out: Assay 1: AhR-Luc Human Antagonism (IC50).
`O=c1c2cc(-c3ccc(C(F)(F)F)cc3)nc(-c3cccnc3)c2ncn1[C@H]1CCCC[C@H]1O` [Example 15, 3-((1S,2R)-2-hydroxycyclohexyl)-8-(pyridin-3-yl)-6-(4-(trifluoromethyl)phenyl)pyrido[3,4-d]pyrimidin-4(3H)-one]: the IC50 was > 1 µM. On to `Cn1cc(-c2nc(-c3ccc(C(F)(F)F)cc3)cc3c(=O)n([C@@H]4CCCC[C@@H]4O)cnc23)cn1` [Example 18, 3-((1R,2S)-2-hydroxycyclohexyl)-8-(1-methyl-1H-pyrazol-4-yl)-6-(4-(trifluoromethyl)phenyl)pyrido[3,4-d]pyrimidin-4(3H)-one], for which the half-inhibitory concentration (IC50) was < 0.01 µM.

On to `O=c1c2cc(-c3ccc(Cl)cc3)nc(-c3cccnc3)c2ncn1[C@@H]1CCCC[C@@H]1O` [Example 19], for which the half-inhibitory concentration (IC50) is < 0.01 µM. The same measure, in the same setting: the result for `Cn1cc(-c2nc(-c3ccc(Cl)cc3)cc3c(=O)n([C@H]4CCCC[C@H]4O)cnc23)cn1` [Example 20, 6-(4-chlorophenyl)-3-((1S,2R)-2-hydroxycyclohexyl)-8-(1-methyl-1H-pyrazol-4-yl)pyrido[3,4-d]pyrimidin-4(3H)-one] reads > 1 µM; that for `O=c1c2cc(-c3ccc(Cl)cc3)nc(-c3cccnc3)c2ncn1[C@H]1CCCC[C@H]1O` [Example 21], > 1 µM; that for `Cn1cc(-c2nc(-c3ccc(C(F)(F)F)cc3)cc3c(=O)n(CC(O)C(F)(F)F)cnc23)cn1` (stereo not shown) [Example 22, 8-(1-methyl-1H-pyrazol-4-yl)-3-(3,3,3-trifluoro-2-hydroxypropyl)-6-(4-(trifluoromethyl)phenyl)pyrido[3,4-d]pyrimidin-4(3H)-one], < 0.01 µM. The same measure, in the same setting: the result for `Cn1cc(-c2nc(-c3ccc(Cl)cc3)cc3c(=O)n(CC(O)C(F)(F)F)cnc23)cn1` (stereo not shown) [Example 23, 6-(4-chlorophenyl)-8-(1-methyl-1H-pyrazol-4-yl)-3-(3,3,3-trifluoro-2-hydroxypropyl)pyrido[3,4-d]pyrimidin-4(3H)-one] reads < 0.01 µM; that for `O=c1c2cc(-c3ccc(Cl)cc3)nc(-c3cccnc3)c2ncn1CC(O)C(F)(F)F` (stereo not shown) [Example 24, 6-(4-chlorophenyl)-8-(pyridin-3-yl)-3-(3,3,3-trifluoro-2-hydroxypropyl)pyrido[3,4-d]pyrimidin-4(3H)-one], < 0.01 µM; that for `O=c1c2cc(-c3ccc(C(F)(F)F)cc3)nc(-c3cccnc3)c2ncn1CC(O)C(F)(F)F` (stereo not shown) [Example 25, 8-(pyridin-3-yl)-3-(3,3,3-trifluoro-2-hydroxypropyl)-6-(4-(trifluoromethyl)phenyl)pyrido[3,4-d]pyrimidin-4(3H)-one], > 1 µM. Same read-out and setting: the result for `Cn1cc(-c2nc(-c3ccc(Cl)cc3)cc3c(=O)n(-c4cccc(O)c4)cnc23)cn1` [Example 26, 6-(4-chlorophenyl)-3-(3-hydroxyphenyl)-8-(1-methyl-1H-pyrazol-4-yl)pyrido[3,4-d]pyrimidin-4(3H)-one] reads 0.01 to 0.1 µM; that for `Cn1cc(-c2nc(-c3ccc(C(F)(F)F)cc3)cc3c(=O)n(-c4cccc(O)c4)cnc23)cn1` [Example 27, 3-(3-hydroxyphenyl)-8-(1-methyl-1H-pyrazol-4-yl)-6-(4-(trifluoromethyl)phenyl)pyrido[3,4-d]pyrimidin-4(3H)-one], < 0.01 µM; that for `O=c1c2cc(-c3ccc(Cl)cc3)nc(-c3cccnc3)c2ncn1[C@@H]1CC[C@H](O)C1` [Example 28, 6-(4-chlorophenyl)-3-((1R,3S)-3-hydroxycyclopentyl)-8-(pyridin-3-yl)pyrido[3,4-d]pyrimidin-4(3H)-one], < 0.01 µM.

With `O=c1c2cc(-c3ccc(C(F)(F)F)cc3)nc(-c3cccnc3)c2ncn1[C@@H]1CC[C@H](O)C1` [Example 29, 3-((1R,3S)-3-hydroxycyclopentyl)-8-(pyridin-3-yl)-6-(4-(trifluoromethyl)phenyl)pyrido[3,4-d]pyrimidin-4(3H)-one], the concentration for half-maximal inhibition (IC50) was < 0.01 µM.

With `Cn1cc(-c2nc(-c3ccc(Cl)cc3)cc3c(=O)n([C@@H]4CC[C@H](O)C4)cnc23)cn1` [Example 30, 6-(4-chlorophenyl)-3-((1R,3S)-3-hydroxycyclopentyl)-8-(1-methyl-1H-pyrazol-4-yl)pyrido[3,4-d]pyrimidin-4(3H)-one], the IC50 fell in the range of 0.01 to 0.1 µM. `Cn1cc(-c2nc(-c3ccc(C(F)(F)F)cc3)cc3c(=O)n([C@@H]4CC[C@H](O)C4)cnc23)cn1` [Example 31, 3-((1R,3S)-3-hydroxycyclopentyl)-8-(1-methyl-1H-pyrazol-4-yl)-6-(4-(trifluoromethyl)phenyl)pyrido[3,4-d]pyrimidin-4(3H)-one]: the 50% inhibitory concentration (IC50) is < 0.01 µM. On to `O=c1c2cc(-c3ccc(Cl)cc3)nc(-c3cccnc3)c2ncn1[C@H]1CC[C@@H](O)C1` [Example 32, 6-(4-chlorophenyl)-3-((1S,3R)-3-hydroxycyclopentyl)-8-(pyridin-3-yl)pyrido[3,4-d]pyrimidin-4(3H)-one], for which the IC50 was < 0.01 µM.

The values are drawn from patent publication US20230147257A1 (DONG-A ST CO., LTD., priority 2020, published 2023).
